Laboratory results published in patent publication US7470821B2, “Aldolase-inhibiting aromatic compounds” (Valorisation-Recherche, Limited Partnership, priority 2003, dated 2008).
Positions count from the first letter of the chain named.

Key:
K229M mutant RM aldolase = target: T1, K229M mutant RM aldolase (Oryctolagus cuniculus, UniProt P00883, K230M); assay: UV-visible differential spectroscopy (method A) with mutated aldolase K229M; type: binding, rabbit; conditions: FHN-P 300 μM; for kapp: 431 nm
T1 construct: made in house
T1 sequence (P00883 1-364 K230M): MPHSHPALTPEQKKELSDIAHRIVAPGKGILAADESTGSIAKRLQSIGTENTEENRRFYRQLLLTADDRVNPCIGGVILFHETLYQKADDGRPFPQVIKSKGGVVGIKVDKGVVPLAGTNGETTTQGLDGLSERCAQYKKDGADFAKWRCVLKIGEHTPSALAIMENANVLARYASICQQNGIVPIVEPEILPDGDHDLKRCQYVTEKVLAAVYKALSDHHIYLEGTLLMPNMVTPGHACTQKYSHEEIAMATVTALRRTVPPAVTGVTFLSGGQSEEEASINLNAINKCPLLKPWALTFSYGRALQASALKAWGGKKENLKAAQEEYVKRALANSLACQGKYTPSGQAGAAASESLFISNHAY
Procedure: (§1) For method A, absorption spectra are recorded as a function of time, between 250 and 500 nm, or at wavelengths corresponding to maximum or minimum absorption. Measurements are begun by adding FHN-P at varying final concentrations (0.1-1 mM) in the TEA buffer containing a fixed concentration of aldolase (10 μM of subunits). Measured absorption spectra for the enzyme complex are corrected using the absorbance of the buffer, the FHN—P, and the enzyme (measured separately). The differential absorption spectra thus obtained are used to calculate the value of the constants that define the formation of the aldolase-inhibitor complex.
(§2) Every UV-visible differential test spectroscopy test using mutated aldolases (10 μM of subunits) is carried out using method A. • Monitored by Electrospray Ionization Mass Spectrometry (ESI-MS).
(§3) Residues of lysine 106, 146 and 229 residues are located at the active aldolase sites and thus are candidates for causing inactivation by forming a Schiff base with the FHN-P. In order to identify which lysine is responsible for the differential absorbances in the presence of FHN-P, sporadic mutations of these lysine residues were created and named: K107M (Research Collaboratory for Structural Bioinformatics Protein Databank), K146M (Blonski C. et al., 1997, Biochem. J. 323:71-77) and […] (Research Collaboratory for Structural Bioinformatics Protein Databank). […] UV-visible differential spectroscopy (method A) was used to examine formation of the enzyme complex for each sporadic mutation in the presence of a fixed concentration of FHN-P (300 μM).

K146M mutant RM aldolase = target: T2, K146M mutant RM aldolase (Oryctolagus cuniculus, UniProt P00883, K147M); assay: UV-visible differential spectroscopy (method A) with mutated aldolase K146M; type: binding, rabbit; conditions: FHN-P 300 μM; for kapp: 431 nm
T2 construct: made in house
T2 sequence (P00883 1-364 K147M): T1 sequence (P00883 1-364 K230M) with K147M, M230K
Procedure: as §1, §2, §3

**Q.** With O=Cc1c(O)ccc2cc(OP(=O)(O)O)ccc12 [FHN-P, 5-formyl-6-hydroxy-2-naphthylphosphate] as the compound, how does the Residual specific activity (K229M mutant RM aldolase) read?
**A.** ud

**Q.** What about the “ΔA relative to 432 nm” value (K229M mutant RM aldolase; first (rapid) phase) of the same compound?
**A.** 95%

**Q.** What about the kapp (K229M mutant RM aldolase; first (rapid) phase) of the same compound?
**A.** 0.040 ± 0.0025 min⁻¹

**Q.** What about the “ΔA relative to 432 nm” value (K229M mutant RM aldolase; second (slow) phase) of the same compound?
**A.** 25%

**Q.** What about the kapp (K229M mutant RM aldolase; second (slow) phase) of the same compound?
**A.** 0.0015 ± 0.0003 min⁻¹

**Q.** And the Residual specific activity (K146M mutant RM aldolase)?
**A.** ud

**Q.** What about the “ΔA relative to 432 nm” value (K146M mutant RM aldolase; first phase) of the same compound?
**A.** 98%

**Q.** What about the kapp (K146M mutant RM aldolase; first phase (associated with inhibition)) of the same compound?
**A.** 0.005 ± 0.0005 min⁻¹

**Q.** What about the “ΔA relative to 432 nm” value (K146M mutant RM aldolase; second (slow) phase) of the same compound?
**A.** 25%

**Q.** And the kapp (K146M mutant RM aldolase; second (slow) phase)?
**A.** 0.0015 ± 0.0003 min⁻¹
